The assay has as its target T1, human FOXO1 (constitutively active form Thr24Ala, Ser256Ala, Ser319Ala) (Homo sapiens, UniProt Q12778, S256A/S319A/T24A).
T1 construct: expressed in transfected cells; host or cells: HEK293 cells transfected with pcDNA3.1 plasmid
In words: FOXO1 inhibitor activity assay: cell-based transcriptional (luciferase) reporter assay in HEK293 cells. The note with it: HEK293 cells transfected with insulin response element firefly luciferase reporter, FOXO1 and Renilla luciferase; 10-point dose response 50 μM to 2.5 nM; 24 hours. The method, boiled down:
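IC50 and maximal inhibition were fitted by 4-parameter logistic regression on normalized firefly/Renilla luciferase ratios. The 0% reference used RFP in place of FOXO1, and the 100% reference was DMSO-only with all plasmids.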
(A reporter such as luciferase makes a cellular process visible.)

T1 sequence (Q12778 whole entry T24A/S256A/S319A): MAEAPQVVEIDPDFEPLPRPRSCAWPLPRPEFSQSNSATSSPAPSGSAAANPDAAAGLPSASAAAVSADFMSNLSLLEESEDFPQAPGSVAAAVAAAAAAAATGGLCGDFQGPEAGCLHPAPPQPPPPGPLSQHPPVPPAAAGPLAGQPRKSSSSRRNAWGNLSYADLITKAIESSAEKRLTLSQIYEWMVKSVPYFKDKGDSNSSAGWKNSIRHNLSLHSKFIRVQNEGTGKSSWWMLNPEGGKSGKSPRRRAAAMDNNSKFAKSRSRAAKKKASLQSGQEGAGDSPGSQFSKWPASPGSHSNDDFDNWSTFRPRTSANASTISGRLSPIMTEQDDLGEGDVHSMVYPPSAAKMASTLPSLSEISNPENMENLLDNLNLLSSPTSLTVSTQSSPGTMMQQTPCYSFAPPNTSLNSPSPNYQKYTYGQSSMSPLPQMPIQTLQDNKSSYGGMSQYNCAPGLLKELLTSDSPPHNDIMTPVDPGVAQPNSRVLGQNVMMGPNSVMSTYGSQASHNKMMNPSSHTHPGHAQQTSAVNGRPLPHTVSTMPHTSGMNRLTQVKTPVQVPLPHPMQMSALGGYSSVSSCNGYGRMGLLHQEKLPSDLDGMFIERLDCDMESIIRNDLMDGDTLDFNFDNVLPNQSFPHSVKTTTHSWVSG

Regarding `COC1CCN(c2ccc(C(=O)Nc3cc(-c4nc5ccccc5[nH]4)[nH]n3)cn2)CC1` [Compound A-159, N-[5-(1H-benzimidazol-2-yl)-1H-pyrazol-3-yl]-6-(4-methoxy-1-piperidyl)-pyridine-3-carboxamide], the IC50 – broadly, the point on the concentration scale where inhibition reaches its midpoint – was under 100 nM.

Regarding `O=C(Nc1cc(-c2nc3cc(F)ccc3[nH]2)[nH]n1)c1ccc(OCCO)c(Cl)c1` [Compound A-141, 3-chloro-N-[5-(5-fluoro-1H-benzimidazol-2-yl)-1H-pyrazol-3-yl]-4-(2-hydroxyethoxy)benzamide], the IC50 is 100 to 300 nM.

Consider `CN1CCN(c2ccc(C(=O)Nc3cc(-c4nc5ccccc5[nH]4)[nH]n3)cn2)CC1` [Compound A-21, N-[5-(1H-benzimidazol-2-yl)-1H-pyrazol-3-yl]-6-(4-methyl-piperazin-1-yl)pyridine-3-carboxamide], for which the IC50 is under 100 nM.

For the origin of these results see US20230416228A1 (Forkhead Biotherapeutics, Inc., priority 2020, published 2023).
